Literature values in patent publication US20170014318A9, “Hair-growth-promoting solution containing chlorine dioxide, preparation methods and using methods thereof” (priority 2011, published 2017).

Experiments:
[1] = tested on: skin and eye mucous; settings: solution containing 9.7 to 11.4 mg/L of chlorine dioxide
[2] = 276.5 mg/L aqueous solution
[3] = 276.5 mg/L aqueous solution; remark: listed apart in the source
[4] = tested on: mice

Row | Compound | 48 hour skin and eye mucous irritating score [1] | toxicity of aqueous solution [2] | accumulated toxicity [3] | oral LD50 [4]
1 | [O][Cl+][O-] [chlorine dioxide] | 0 | actually non-toxic | no significant accumulated toxicity | –
2 | stable chlorine dioxide | – | – | – | > 10000 mg/kg
